Results from patent US20140256555A1, “METHODS FOR TREATING FLOWERING PLANTS WITH RIBOSE” (RiboCor, Inc., priority 2013, published 2014).

Legend:
Snake Plant = experiment: Watering with D-ribose solution, blooming of Snake Plant; format: in vivo, Mother's-in-law Tongue/Snake Plant; details: had not bloomed in over 15 years, indoor plant; 5 grams of D-ribose to one gallon of water
Description: (§1) Plants treated with a solution of D-ribose in this example included Orchids, Christmas Cactus, Palm, Mother's-in-law Tongue/Snake Plant, Rosemary, Bamboo, Pothos, Hibiscus, Jade, Purple Passion, Aloe vera, Schefflera, Cacti, and Norfolk Island Pine.
(§2) The use of MIRACLE-GRO liquid plant food was stopped, then the use of a solution of D-ribose to treat the plants was started. Each week a fresh solution of D-ribose was made using 5 grams of D-ribose to one gallon of water.
This is another example of plant typically regarded as a non-flowering type plant. […] It had not bloomed in over 15 years. While flowers on this plant are not unheard of, it is uncommon to bloom in the Minnesota climate and as an indoor plant.

flowering plants = experiment: Watering of house plants with D-ribose solution, observation of blooming; format: in vivo; details: 5 grams of D-ribose to one gallon of water, after MIRACLE-GRO was stopped
Description: as §1, §2
Specific observations are noted below. While all the plants were extremely healthy and grew exceptionally well, traditional flowering varieties performed amazingly well.

Christmas Cactus = experiment: Watering with D-ribose solution, blooming of Christmas Cactus; format: in vivo; details: typically blooms only around Christmas and Easter; 5 grams of D-ribose to one gallon of water
Description: as §1, §2
This variety of plant typically only blooms around the Christmas and Easter holidays each year for a few weeks up to a month or so, then it stops blooming.

Purple Waffle = experiment: Growth of Purple Waffle plants over a 9 month period with weekly feeding; format: in vivo; details: 1× (1.5 mg/ml) or 2× (3 mg/ml) D-ribose weekly, versus control and MIRACLE-GRO fed plant
Method: The growth of four plants was observed over a 9 month period. One plant was not fed (control), but watered weekly. One plant was fed MIRACLE-GRO liquid plant food weekly based on product instructions of feeding every time you water by squeezing 10-20 drops into 1 quart of water. One plant was fed 1× (1.5 mg/ml) D-ribose weekly. One plant was fed 2× (3 mg/ml) D-ribose weekly.

Orchids = experiment: Watering with D-ribose solution, blooming of orchids; format: in vivo; details: 5 grams of D-ribose to one gallon of water
Description: as §1, §2
The first subject was an orchid which had not bloomed in six plus years.

Palm = experiment: Watering with D-ribose solution, blooming of Palm; format: in vivo; details: plant had not bloomed in approximately fifteen years; 5 grams of D-ribose to one gallon of water
Description: as §1, §2
This is typically regarded as a non-flowering type of plant. This plant had not bloomed in approximately fifteen years.

Hibiscus = experiment: Watering with D-ribose solution, blooming of Hibiscus; format: in vivo; details: indoors for the winter months; 5 grams of D-ribose to one gallon of water
Description: as §1, §2
This plant was taken inside in October for the winter months.

O=C[C@H](O)[C@H](O)[C@H](O)CO [D-ribose]
blooming / flowering growth (Snake Plant): grew unusual growths that appeared to be some type of flowering appendage | blooming observed in treated plants (flowering plants): Sustained blooming in many of the flowering plants | blooming (Christmas Cactus): started to bloom early and sustained an abundance of continued blooms | branching (Purple Waffle): increased branching compared to both the control and the MIRACLE-GRO fed plant | blooming, first orchid (Orchids; orchid which had not bloomed in six plus years): sparked two new stems full of blooms | blooming, second orchid (Orchids; orchid which had not bloomed in three plus years): showed the same results as subject one | blooming / flowering growth (Palm): grew an unusual type of growth that appeared to be a flowering/seed mechanism on two different stems | blooming (Hibiscus): continuously bloomed
